Target: T1, rShGST (recombinant Schistoma japonicum GST) (Schistosoma japonicum, UniProt P08515)
T1 construct: GST expressed from the empty vector pGEX-6P-1 (vector-encoded C-terminal linker), E. coli BL21(DE3), Glutathione Sepharose
Assay: GST activity with CDNB, absorbance at […] nm
Format: biochemical
Settings: 100 µM inhibitor; 1 mM CDNB, 1 mM GSH, 0.1 M phosphate pH 6.5

T1 sequence (P08515 2-218): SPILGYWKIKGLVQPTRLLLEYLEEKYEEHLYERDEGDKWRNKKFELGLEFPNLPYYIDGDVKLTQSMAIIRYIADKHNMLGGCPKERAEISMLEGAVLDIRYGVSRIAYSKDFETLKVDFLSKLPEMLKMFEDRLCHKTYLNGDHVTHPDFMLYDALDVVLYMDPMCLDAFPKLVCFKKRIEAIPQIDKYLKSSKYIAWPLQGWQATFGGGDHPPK

## C=C(CC)C(=O)c1ccc(OCC(=O)O)c(Cl)c1Cl [ethacrynic acid]
  GST activity, % of control at 100 μM: Ethacrynic acid strongly inhibited the GST activity of recombinant Schistoma japonicum GST (rShGST)

Source: article PMC5535166 (Toxins, 2017)
